The values that follow come from US6638524B2, “Cosmetics, foods and beverages supplemented with purified strictinin” (National Agricultural Research Organization, priority 2000, dated 2003).

Each structure is given as a SMILES string.

In experiment [1] the test system is CεGT inducible expression by IL-4 in human peripheral blood lymphocytes. Put plainly: expression of IgE heavy chain germline transcript (CεGT) induced by IL-4 in human peripheral blood lymphocytes. It counts as cell-based. As to conditions: strictinin 25 μM added at the same time with IL-4, human peripheral blood lymphocytes, FIG. 4. As for the experimental part:
(§1) Each of Fr. 1 to 5 in Experimental Example 1 was evaluated for its antiallergic action in vitro by a method for the expression of a transcript of an IgE heavy chain germline transcript which was to investigate the suppression of IgE production in human B cells (IgE class switch suppression). This is a method utilizing the fact that, when human B cells are stimulated by IL-4 to induce the production of IgE, a transcription is started from the upstream intron corresponding to an ε region (Cε) in the constant domain gene of the Ig gene whereupon a transcript (CεGT: germline transcript) is expressed and, after that, a class switch of IgE is resulted by a DNA recombination. CεGT is an RNA which is always expressed before the IgE production is induced and the expressed amount of CεGT is proportional to the class switch amount of the IgE gene. Therefore, when the degree of expressed amount of CεGT is detected, it is possible to estimate the IgE class switch amount.
Human peripheral blood normal cells (monocytes; separated from the blood which was collected from a healthy human volunteer) was used instead of the human B cell line DND 39 of Experimental Example 3 and an antiallergic activity was measured by the same way as in the method for the expression of an IgE heavy chain germline transcript mentioned in Experimental Example 2. […]

Experiment [2] relates to CεGT inducible expression by IL-4 in human B cell line DND 39. Briefly: expression of IgE heavy chain germline transcript (CεGT) induced by IL-4 in human B cell line DND 39 (IgE class switch suppression). The experiment is classed as cell-based. As to conditions: strictinin 1, 10 and 25 μM added at the same time with IL-4, DND 39, FIG. 3. The method, then: as §1
A method for the expression of an IgE heavy chain germline transcript was carried out according to the following procedures. […]
Then, a cDNA library was prepared according to the following procedure. First, concentration of the extracted total RNA was measured by an absorptiometer, a portion of 10 μg was taken in a 0.6 mL tube and water was added thereto to make 11.8 μL. […]

Experiment [3] deals with mast cells in abdominal cavity of rat. As to conditions: literature report; cited from earlier work.

In the case of `O=C(O[C@@H]1O[C@@H]2COC(=O)c3cc(O)c(O)c(O)c3-c3c(cc(O)c(O)c3O)C(=O)O[C@H]2[C@H](O)[C@H]1O)c1cc(O)c(O)c(O)c1` [strictinin], the “IgE class switch by addition of IL-4 (CεGT inducible expression)” value in experiment [1] and in experiment [2] was “strongly suppressed” each time.

Take `O=C(O[C@@H]1Cc2c(O)cc(O)cc2O[C@@H]1c1cc(O)c(O)c(O)c1)c1cc(O)c(O)c(O)c1` [epigallocatechin gallate]: the “liberation of histamine from mast cells” value in experiment [3] was “suppress”.

As for `O=C(O[C@@H]1Cc2c(O)cc(O)cc2O[C@@H]1c1ccc(O)c(O)c1)c1cc(O)c(O)c(O)c1` [epicatechin gallate], the “liberation of histamine from mast cells” value in experiment [3] is reported as “suppress”.
